Laboratory results reported in PubChem BioAssay (NCI).
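Test compounds were applied to cells in 96-well plates for 48 hours at 5 doses. The concentration for 50% growth inhibition is given as GI50. TGI: concentration producing complete growth inhibition.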

Assays:
Assay in all cases: NCI anticancer screen, dose series, 48 h
[1] = test system: DLD-1 colon
[2] = test system: M19-MEL melanoma
[3] = test system: XF 498 CNS
[4] = test system: DMS 114 small cell lung
[5] = test system: NCI/ADR-RES ovarian
[6] = test system: DU-145 prostate
[7] = test system: PC-3 prostate
[8] = test system: HS 578T breast
[9] = test system: SR leukemia
[10] = test system: T-47D breast
[11] = test system: BT-549 breast
[12] = test system: MDA-N
[13] = test system: 786-0 renal

SMILES	TGI [1] [µM]	TGI [2] [µM]	TGI [3] [µM]	TGI [4] [µM]	TGI [5] [µM]	GI50 [6] [µM]	TGI [6] [µM]	GI50 [7] [µM]	TGI [7] [µM]	GI50 [8] [µM]	TGI [8] [µM]	GI50 [9] [µM]	TGI [9] [µM]	GI50 [10] [µM]	TGI [10] [µM]	GI50 [5] [µM]	TGI [11] [µM]	TGI [12] [µM]	TGI [13] [µM]
Nc1cccc2c1C1=NNC(=O)CC1C2 (stereo unspecified)	> 100	> 100	> 100	> 100	> 100														
O=C(NCCNc1nccc(-c2c(-c3cccc(O)c3)nc3sccn23)n1)Nc1cccc(C(F)(F)F)c1					> 100	5.37	30	2.94	12.6	3.56	17.8	6.08	40	6.52	25.6	26.9			
Cc1c2cc[n+](C)cc2c(C)c2c1[nH]c1ccc(Cl)cc12	> 100	3.94		2.78	> 100		30.5		> 43.2		0.743		> 78.1		14.8		4.16	> 59.3	5.76
CCOC(=O)C(=O)Nc1c(CC)cccc1C(C)CC (stereo unspecified)	> 100	> 100	> 100	> 100									> 100						
C=Cc1cc(OC)c2c(c1)c(=O)oc1c2cc(OC)c2c(O)ccc(C3OC(C)C(O)C(C)(O)C3O)c21 (stereo unspecified)	1.07	0.16	0.0373	0.0393			0.00897		0.00405		0.00683		0.000187		0.00439	0.000659	0.00758	0.00425	
CNS(=O)(=O)c1ccc2[nH]c(O)c(C3=Nc4ccccc4C3=O)c2c1					> 100		> 100		> 100		> 100				> 100		> 100	> 100	
NC(=O)Nc1ccc(C(=O)NCCCNC(=O)c2ccc(NC(N)=O)cc2)cc1					> 100		> 100		> 100		> 100		> 100		> 100		> 100	> 100	
